Test results from ChEMBL document CHEMBL1201862, “PubChem BioAssay data set” (2004).
The source made the active and inactive calls.

Tests used:
[1] = viability of HCT116 lacking mutant beta-catenin – cell-based, human colon tumor, dose response (AID 1045); assay type: functional;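 further: HCT116 colon tumor cells with beta catenin knocked out; cells exposed to compound for 60 hours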
[2] = molecular target: Peroxisome proliferator-activated receptor gamma/Nuclear receptor coactivator 3 (Homo sapiens, UniProt P37231); assay type: functional;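 further: agonist potency for raising coactivator recruitment to the receptor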
Sequence of Peroxisome proliferator-activated receptor gamma/Nuclear receptor coactivator 3 (P37231 whole entry): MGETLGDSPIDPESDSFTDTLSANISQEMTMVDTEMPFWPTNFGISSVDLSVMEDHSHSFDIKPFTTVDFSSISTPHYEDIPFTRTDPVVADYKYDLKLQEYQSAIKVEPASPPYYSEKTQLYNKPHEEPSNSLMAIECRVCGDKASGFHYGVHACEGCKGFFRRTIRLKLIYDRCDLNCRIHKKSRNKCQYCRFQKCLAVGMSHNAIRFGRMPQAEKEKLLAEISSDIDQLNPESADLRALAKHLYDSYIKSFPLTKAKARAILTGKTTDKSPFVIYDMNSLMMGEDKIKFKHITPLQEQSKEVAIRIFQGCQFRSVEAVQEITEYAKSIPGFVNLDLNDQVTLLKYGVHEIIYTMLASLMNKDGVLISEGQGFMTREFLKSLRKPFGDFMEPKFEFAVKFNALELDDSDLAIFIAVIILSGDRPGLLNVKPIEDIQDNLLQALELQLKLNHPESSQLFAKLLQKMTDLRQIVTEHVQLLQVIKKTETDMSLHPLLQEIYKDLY
Sequence of Peroxisome proliferator-activated receptor gamma/Nuclear receptor coactivator 3 (Q9Y6Q9 whole entry, further chain): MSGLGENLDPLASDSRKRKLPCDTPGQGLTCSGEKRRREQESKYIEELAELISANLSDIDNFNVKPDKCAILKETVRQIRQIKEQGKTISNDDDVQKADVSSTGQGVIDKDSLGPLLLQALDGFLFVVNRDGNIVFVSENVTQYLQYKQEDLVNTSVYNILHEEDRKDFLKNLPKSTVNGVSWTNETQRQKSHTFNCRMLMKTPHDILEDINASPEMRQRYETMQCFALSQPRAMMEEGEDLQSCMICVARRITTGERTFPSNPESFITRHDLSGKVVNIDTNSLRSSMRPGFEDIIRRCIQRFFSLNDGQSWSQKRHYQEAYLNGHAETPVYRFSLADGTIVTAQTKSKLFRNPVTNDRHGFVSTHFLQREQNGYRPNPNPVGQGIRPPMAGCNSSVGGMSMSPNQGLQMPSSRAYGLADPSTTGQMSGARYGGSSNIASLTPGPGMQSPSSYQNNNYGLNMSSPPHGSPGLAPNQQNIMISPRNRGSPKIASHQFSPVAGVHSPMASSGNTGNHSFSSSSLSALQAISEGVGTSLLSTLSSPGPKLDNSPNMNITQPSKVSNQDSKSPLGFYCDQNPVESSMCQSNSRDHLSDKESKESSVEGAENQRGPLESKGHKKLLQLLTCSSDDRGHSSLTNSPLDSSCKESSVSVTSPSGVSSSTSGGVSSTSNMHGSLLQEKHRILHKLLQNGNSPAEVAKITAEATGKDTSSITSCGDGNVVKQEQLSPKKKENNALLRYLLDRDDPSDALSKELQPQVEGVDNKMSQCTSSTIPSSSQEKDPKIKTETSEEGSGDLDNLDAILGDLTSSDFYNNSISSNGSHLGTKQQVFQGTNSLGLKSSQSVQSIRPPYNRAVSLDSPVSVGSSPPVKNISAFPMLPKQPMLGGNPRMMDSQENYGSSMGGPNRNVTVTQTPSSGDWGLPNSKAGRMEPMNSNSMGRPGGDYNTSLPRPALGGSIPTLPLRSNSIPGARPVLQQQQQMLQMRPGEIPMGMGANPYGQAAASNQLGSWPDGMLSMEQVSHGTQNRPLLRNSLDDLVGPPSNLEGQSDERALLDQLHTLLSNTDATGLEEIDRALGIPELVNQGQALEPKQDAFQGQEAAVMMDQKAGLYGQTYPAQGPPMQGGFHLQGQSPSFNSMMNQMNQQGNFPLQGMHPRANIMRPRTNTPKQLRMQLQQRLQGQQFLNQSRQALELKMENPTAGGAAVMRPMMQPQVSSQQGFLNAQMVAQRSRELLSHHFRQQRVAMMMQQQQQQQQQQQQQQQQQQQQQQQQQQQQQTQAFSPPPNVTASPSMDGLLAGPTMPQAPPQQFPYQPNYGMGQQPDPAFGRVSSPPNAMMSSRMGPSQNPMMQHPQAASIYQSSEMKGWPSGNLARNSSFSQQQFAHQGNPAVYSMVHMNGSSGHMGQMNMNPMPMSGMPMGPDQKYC

Large T antigen = Large T antigen (Simian virus 40, UniProt P03070); assay type: functional, Betapolyomavirus macacae;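 further: Confirmatory-stage PubChem screen for compounds that inhibit SV40 T antigen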
[3] = Luminescence Cell-Based Dose Retest to Confirm Inhibitors of Cancer Stem Cells. [Related pubchem assays (depositor defined):AID2717, AID2721]; assay type: functional, Homo sapiens; settings: Homo sapiens
INS1 = test: INS-1E survival protection against cytokine death – cell-based, luminescence, retest, dose response (AID 449756); assay type: functional; settings: Rattus norvegicus;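 further: cell death triggered by IL-1 beta plus TNF-alpha plus IFN-gamma mixture; protective hits raise ATP signal compared with cytokine alone wells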
[4] = molecular target: Peroxisome proliferator-activated receptor gamma/Nuclear receptor coactivator 1 (Homo sapiens, UniProt P37231); assay type: functional;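 further: agonist potency as compounds enhance coactivator SRC-1 recruitment to PPARgamma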
[5] = molecular target: Peroxisome proliferator-activated receptor gamma/Nuclear receptor coactivator 2 (Homo sapiens, UniProt P37231); assay type: functional;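 further: agonist potency for raising coactivator recruitment to the receptor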
Sequence of Peroxisome proliferator-activated receptor gamma/Nuclear receptor coactivator 2 (P37231 whole entry): as the sequence (P37231 whole entry) above
Sequence of Peroxisome proliferator-activated receptor gamma/Nuclear receptor coactivator 2 (Q15596 whole entry, further chain): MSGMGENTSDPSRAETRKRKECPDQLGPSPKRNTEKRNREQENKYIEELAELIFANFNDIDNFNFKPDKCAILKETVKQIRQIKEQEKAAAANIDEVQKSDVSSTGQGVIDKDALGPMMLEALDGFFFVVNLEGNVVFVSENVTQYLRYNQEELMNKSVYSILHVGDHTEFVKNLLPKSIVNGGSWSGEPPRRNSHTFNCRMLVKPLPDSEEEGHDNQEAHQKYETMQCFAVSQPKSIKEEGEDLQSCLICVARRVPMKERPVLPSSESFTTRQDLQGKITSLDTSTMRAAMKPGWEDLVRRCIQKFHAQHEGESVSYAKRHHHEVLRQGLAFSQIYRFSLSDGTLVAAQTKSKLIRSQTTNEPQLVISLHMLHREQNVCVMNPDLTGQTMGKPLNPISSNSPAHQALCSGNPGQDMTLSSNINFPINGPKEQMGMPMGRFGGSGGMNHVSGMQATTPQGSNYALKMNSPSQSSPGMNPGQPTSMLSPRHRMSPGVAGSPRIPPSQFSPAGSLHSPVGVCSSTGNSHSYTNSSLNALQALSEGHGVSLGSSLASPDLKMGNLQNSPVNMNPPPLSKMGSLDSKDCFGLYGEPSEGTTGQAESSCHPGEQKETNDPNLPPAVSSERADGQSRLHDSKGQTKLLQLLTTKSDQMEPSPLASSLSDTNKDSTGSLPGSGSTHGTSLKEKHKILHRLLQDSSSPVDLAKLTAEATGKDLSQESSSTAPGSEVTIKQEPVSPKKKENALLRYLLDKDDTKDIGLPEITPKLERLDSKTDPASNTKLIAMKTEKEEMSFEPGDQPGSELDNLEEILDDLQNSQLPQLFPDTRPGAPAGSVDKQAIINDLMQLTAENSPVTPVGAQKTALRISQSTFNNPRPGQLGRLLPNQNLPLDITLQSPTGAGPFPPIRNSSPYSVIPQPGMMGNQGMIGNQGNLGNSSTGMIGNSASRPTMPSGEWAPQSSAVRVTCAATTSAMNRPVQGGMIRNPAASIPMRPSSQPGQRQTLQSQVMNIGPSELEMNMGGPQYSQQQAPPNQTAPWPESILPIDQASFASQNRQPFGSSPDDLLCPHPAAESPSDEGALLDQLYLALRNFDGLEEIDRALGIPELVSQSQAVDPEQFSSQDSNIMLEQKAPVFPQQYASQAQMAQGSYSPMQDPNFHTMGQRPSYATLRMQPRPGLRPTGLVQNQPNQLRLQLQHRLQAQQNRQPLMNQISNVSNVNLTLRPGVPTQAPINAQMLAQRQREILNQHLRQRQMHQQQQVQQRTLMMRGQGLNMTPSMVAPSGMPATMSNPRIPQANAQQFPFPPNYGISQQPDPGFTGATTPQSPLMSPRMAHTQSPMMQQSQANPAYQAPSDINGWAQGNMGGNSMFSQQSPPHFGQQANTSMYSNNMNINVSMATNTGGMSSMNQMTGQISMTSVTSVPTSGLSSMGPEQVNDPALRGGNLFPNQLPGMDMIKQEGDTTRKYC

[6] = viability of PTEN-deleted HCT116 cells – cell-based, HCT116 PTEN knockout, dose response (AID 1047); assay type: functional;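 further: HCT116 colon tumor cells with PTEN knocked out; cells exposed to compound for 60 hours before readout; potency for loss of cell viability measured by luminescence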
[7] = molecular target: T1, Dual specificity protein phosphatase 6 (Rattus norvegicus, UniProt Q64346); assay type: functional
T1 sequence (Q64346 whole entry): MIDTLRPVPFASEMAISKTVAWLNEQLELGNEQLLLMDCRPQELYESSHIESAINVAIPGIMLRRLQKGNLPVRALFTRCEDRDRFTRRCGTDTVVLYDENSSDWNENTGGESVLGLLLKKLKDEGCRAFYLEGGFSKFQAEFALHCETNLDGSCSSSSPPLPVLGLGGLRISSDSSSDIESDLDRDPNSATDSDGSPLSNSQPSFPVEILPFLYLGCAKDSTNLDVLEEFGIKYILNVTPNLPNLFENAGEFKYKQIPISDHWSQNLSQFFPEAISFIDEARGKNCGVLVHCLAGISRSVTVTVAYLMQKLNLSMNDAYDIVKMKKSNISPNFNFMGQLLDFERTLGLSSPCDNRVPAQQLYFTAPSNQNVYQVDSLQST

[8] = molecular target: Glyceraldehyde-3-phosphate dehydrogenase (Homo sapiens, UniProt P04406)
Sequence of Glyceraldehyde-3-phosphate dehydrogenase (P04406 whole entry): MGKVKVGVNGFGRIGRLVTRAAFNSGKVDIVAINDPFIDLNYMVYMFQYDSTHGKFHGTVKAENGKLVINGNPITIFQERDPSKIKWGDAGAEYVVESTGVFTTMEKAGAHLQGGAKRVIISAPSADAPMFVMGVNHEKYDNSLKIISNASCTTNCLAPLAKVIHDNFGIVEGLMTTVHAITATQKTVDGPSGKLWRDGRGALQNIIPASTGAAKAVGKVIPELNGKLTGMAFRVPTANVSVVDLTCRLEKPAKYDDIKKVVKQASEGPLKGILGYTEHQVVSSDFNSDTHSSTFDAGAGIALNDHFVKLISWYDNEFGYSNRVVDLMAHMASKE

[9] = molecular target: T2, Tyrosine-protein phosphatase non-receptor type 7 (Homo sapiens, UniProt P35236); assay type: functional
T2 sequence (P35236 whole entry): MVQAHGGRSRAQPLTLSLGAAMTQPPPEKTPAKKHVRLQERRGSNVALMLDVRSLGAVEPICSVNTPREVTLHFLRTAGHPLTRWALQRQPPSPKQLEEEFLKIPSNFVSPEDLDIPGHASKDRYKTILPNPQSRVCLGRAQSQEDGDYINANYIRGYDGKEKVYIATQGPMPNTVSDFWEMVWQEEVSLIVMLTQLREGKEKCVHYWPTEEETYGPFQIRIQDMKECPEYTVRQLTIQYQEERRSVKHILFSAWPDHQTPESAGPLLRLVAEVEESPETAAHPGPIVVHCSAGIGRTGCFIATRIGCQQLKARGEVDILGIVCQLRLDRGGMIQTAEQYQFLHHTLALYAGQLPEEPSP

[10] = molecular target: T1, Dual specificity protein phosphatase 6
[11] = molecular target: T3, Neuropeptide Y receptor type 2 (Homo sapiens, UniProt P49146); assay type: functional, cell-based;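 further: HEK293 cells expressing the receptor and a CNG channel; stimulus was NPY near EC95 followed by isoproterenol to raise cAMP; antagonist potency measured as restoring cAMP signal that NPY suppresses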
T3 sequence (P49146 whole entry): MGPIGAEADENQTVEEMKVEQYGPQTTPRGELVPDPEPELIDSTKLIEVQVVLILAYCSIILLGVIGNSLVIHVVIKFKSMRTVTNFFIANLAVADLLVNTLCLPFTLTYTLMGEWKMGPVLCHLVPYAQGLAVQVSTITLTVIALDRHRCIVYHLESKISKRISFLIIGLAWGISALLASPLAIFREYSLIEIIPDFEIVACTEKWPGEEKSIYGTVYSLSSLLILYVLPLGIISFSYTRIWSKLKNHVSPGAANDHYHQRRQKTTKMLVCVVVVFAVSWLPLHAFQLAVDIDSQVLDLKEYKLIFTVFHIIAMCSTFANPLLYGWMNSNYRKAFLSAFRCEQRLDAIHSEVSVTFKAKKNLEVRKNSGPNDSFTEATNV

[12] = molecular target: T4, Neuropeptide Y receptor type 1 (Homo sapiens, UniProt P25929); assay type: functional;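 further: HEK293 cells with a CNG channel challenged with NPY then isoproterenol; potency as antagonist that reverses NPY suppression of cAMP signal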
T4 sequence (P25929 whole entry): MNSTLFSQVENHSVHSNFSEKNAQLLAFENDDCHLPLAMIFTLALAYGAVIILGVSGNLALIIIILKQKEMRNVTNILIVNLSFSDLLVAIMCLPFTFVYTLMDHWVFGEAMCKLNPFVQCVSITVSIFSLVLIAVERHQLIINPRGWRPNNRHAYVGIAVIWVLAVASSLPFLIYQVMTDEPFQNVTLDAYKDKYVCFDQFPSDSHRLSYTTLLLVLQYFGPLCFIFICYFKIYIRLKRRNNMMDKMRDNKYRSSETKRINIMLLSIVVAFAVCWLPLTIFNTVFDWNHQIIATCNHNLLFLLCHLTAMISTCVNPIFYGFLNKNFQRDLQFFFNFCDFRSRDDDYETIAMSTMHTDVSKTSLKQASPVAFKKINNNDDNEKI

[13] = molecular target: T5, Corticotropin-releasing factor receptor 2/Corticotropin-releasing factor-binding protein (Homo sapiens, UniProt P24387+Q13324); test: activators of CRF receptor 2 with binding protein – uHTS hits, confirmation (AID 602473); assay type: functional; settings: read-out: EC50_Mean
T5 sequence (Q13324 whole entry): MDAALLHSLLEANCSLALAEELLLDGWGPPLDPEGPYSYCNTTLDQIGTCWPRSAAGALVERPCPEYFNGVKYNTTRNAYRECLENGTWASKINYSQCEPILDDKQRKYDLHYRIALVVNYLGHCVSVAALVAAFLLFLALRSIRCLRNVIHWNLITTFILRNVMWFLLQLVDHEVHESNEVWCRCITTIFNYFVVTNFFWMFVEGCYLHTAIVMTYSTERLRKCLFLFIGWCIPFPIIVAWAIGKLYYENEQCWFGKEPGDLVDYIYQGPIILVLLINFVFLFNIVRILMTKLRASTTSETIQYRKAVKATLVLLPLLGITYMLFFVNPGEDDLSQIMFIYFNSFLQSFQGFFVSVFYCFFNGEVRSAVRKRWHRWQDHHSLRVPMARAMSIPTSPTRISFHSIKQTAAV
T5 sequence (P24387 whole entry): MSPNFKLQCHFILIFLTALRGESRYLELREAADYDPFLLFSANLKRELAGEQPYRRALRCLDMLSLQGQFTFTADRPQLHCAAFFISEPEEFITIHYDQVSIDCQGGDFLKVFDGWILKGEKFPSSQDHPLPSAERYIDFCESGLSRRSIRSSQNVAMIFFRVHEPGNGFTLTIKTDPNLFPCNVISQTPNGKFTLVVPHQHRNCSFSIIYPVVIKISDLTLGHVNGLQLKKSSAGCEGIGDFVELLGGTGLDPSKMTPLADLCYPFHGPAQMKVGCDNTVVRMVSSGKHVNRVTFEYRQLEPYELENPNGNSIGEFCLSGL

[14] = molecular target: T5, Corticotropin-releasing factor receptor 2/Corticotropin-releasing factor-binding protein; test: Dose Response confirmation of uHTS hits for small molecule antagonists of the CRF-binding protein and CRF-R2 receptor complex.; assay type: functional; settings: read-out: IC50_Mean
[15] = molecular target: DNA dC->dU-editing enzyme APOBEC-3A (Homo sapiens, UniProt P31941); test: Dose Response confirmation of small molecule APOBEC3A DNA Deaminase Inhibitors via a fluorescence-based single-stranded DNA deaminase assay. [Related pubchem assays (depositor defined):AID493011, AID493024]; assay type: functional
Sequence of DNA dC->dU-editing enzyme APOBEC-3A (P31941 whole entry): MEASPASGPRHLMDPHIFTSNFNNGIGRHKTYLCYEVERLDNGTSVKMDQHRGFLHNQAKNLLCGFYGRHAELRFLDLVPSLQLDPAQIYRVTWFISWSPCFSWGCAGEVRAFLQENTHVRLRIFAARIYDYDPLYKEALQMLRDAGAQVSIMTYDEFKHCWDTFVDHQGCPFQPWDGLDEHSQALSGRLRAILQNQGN

[16] = molecular target: DNA dC->dU-editing enzyme APOBEC-3G (Homo sapiens, UniProt Q9HC16); assay type: functional;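 further: Dose-response counterscreen measuring inhibition of APOBEC3G DNA deaminase activity, run while confirming APOBEC3A inhibitors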
Hexokinase = molecular target: T6, Hexokinase (Trypanosoma brucei, UniProt Q38C41); test: Confirmation assay for inhibitors of Trypanosoma brucei hexokinase 1-Analogue-first series. [Related pubchem assays (depositor defined):AID1430, AID1632, AID2516, AID2560, AID2579, AID2600, AID449725, AID492951]; assay type: functional
T6 sequence (Q38C41 whole entry): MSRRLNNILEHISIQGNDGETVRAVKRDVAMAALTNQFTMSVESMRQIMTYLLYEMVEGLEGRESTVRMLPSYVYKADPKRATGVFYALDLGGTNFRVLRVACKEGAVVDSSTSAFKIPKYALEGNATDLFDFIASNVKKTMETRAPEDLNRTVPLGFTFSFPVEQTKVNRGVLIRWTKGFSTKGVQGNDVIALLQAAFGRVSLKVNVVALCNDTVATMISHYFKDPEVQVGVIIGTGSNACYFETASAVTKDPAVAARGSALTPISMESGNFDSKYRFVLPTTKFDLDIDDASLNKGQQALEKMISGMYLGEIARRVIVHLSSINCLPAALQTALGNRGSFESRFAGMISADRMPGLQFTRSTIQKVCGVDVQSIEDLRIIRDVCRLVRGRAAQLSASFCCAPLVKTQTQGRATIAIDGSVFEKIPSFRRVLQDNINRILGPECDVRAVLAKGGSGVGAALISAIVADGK

Cytochrome P450 3A4 [17] = molecular target: T7, Cytochrome P450 3A4 (Homo sapiens, UniProt P08684);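 further: CYP3A4 tested as one member of a cytochrome P450 panel screen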
T7 sequence (P08684 whole entry): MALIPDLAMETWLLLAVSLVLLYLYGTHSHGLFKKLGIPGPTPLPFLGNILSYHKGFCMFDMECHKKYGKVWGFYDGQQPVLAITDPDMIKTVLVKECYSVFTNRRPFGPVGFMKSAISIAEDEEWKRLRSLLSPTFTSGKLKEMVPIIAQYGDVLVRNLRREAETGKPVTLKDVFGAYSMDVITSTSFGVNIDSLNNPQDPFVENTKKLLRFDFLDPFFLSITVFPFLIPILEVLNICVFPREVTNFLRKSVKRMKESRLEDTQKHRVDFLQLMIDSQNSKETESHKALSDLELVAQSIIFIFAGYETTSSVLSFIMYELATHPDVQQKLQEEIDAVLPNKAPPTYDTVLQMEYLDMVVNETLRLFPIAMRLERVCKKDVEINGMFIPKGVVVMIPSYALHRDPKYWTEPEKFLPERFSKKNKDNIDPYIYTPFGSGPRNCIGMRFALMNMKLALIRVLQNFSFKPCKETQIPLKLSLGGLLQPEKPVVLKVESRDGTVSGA

Vero = test: mammalian cell viability reduction – secondary assay, cytotoxicity control for West Nile virus antiviral project, dose response (AID 1650); assay type: functional, Chlorocebus sabaeus; settings: Chlorocebus sabaeus, Vero
[18] = molecular target: T8, Alkaline phosphatase, tissue-nonspecific isozyme (Homo sapiens, UniProt P05186); test: potency against alkaline phosphatase TNAP – biochemical, luminescent, dose response, SAR follow-up (AID 1056)
T8 sequence (P05186 whole entry): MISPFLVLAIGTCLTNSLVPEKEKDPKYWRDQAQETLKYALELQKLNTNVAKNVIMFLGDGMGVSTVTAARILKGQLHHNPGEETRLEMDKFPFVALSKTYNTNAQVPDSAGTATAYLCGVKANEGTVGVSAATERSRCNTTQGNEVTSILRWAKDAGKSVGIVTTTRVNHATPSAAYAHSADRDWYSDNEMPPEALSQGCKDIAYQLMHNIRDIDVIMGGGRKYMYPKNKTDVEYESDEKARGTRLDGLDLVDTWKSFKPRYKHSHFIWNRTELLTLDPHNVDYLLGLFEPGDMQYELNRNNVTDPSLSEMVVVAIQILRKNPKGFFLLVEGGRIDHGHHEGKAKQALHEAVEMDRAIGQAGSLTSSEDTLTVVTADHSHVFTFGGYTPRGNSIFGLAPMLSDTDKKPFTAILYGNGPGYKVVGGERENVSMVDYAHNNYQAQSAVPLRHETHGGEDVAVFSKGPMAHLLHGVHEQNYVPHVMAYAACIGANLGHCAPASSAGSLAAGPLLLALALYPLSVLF

[19] = molecular target: Induced myeloid leukemia cell differentiation protein Mcl-1 (Homo sapiens, UniProt Q07820); assay type: functional
cells = assay type: functional
[20] = THP-1 cell cytotoxicity, dose response, cytotoxicity control for non-replicating M. tuberculosis project (AID 489025); assay type: functional
[21] = HepG2 cell cytotoxicity, dose response, cytotoxicity control for non-replicating M. tuberculosis project (AID 489018); assay type: functional; settings: Mycobacterium tuberculosis
[22] = Vero E6 cell cytotoxicity, dose response, cytotoxicity control for non-replicating M. tuberculosis project, secondary assay (AID 492998); assay type: functional, VeroE6; settings: Vero C1008
Cytochrome P450 3A4 [23] = molecular target: T7, Cytochrome P450 3A4; remark: listed apart in the source

## COc1cc(SC#N)ccc1/N=C/c1c(C)[nH]n(-c2ccc(C)cc2)c1=O
[1]
  EC50: 107 µM (active)
[2]
  EC50: > 79.4 µM (not active)
Large T antigen
  IC50: 21.2 µM (active)
[3]
  AC50: 2.9 µM (active)
INS1
  AC50: 3.6 µM (active)
[4]
  EC50: > 79.4 µM (not active)
[5]
  EC50: > 79.4 µM (not active)
[6]
  EC50: 56.6 µM (active)

## CCn1c(=O)n(Cc2ccc([N+](=O)[O-])cc2)c(=O)n([C@@H](Cc2ccccc2)C(=O)O)c1=O
[7]
  IC50: > 100 µM (inactive)
[8]
  IC50: > 100 µM (not active)
[9]
  IC50: > 100 µM (not active)
[10]
  IC50: > 100 µM (inactive)

## C/C(=N\OC(=O)c1ccc(OC(C)C)cc1)c1ccc(C)c(C)c1
[11]
  IC50: 7.94 µM (active)
[12]
  IC50: 7.08 µM (active)
[13]
  EC50: > 53 µM (inactive)
[14]
  IC50: > 47.1 µM (inactive)

## C[N+]1(CC(O)COc2ccccc2)CCN(C(=O)c2ccc([N+](=O)[O-])cc2)CC1 (stereo not drawn)
[15]
  IC50: 2.82 µM (active)
[16]
  IC50: 3.44 µM (active)

## O=C(O)c1ccc(Cl)cc1NC(=O)C1CCOCC1
Hexokinase
  IC50: > 25 µM (inactive)

## COc1ccc(C(=O)Nc2cc(Cl)ccc2C(=O)O)cn1
Hexokinase
  IC50: > 25 µM (inactive)

## CC(C)(C)c1ccc(C(=O)Nc2cc(Cl)ccc2C(=O)O)cc1
Hexokinase
  IC50: 2.12 µM (active)

## Cc1nc(SCC(=O)c2ccc(Cl)s2)c2oc3ccccc3c2n1
Cytochrome P450 3A4 [17]
  AC50: 2.82 µM (inconclusive)
[2]
  EC50: > 79.4 µM (not active)
Vero
  CC50: 23.6 µM (active)
[4]
  EC50: > 79.4 µM (not active)
[5]
  EC50: > 79.4 µM (not active)

## O=S(=O)(Nc1cnc2ccccc2c1)c1cc(Cl)ccc1Cl
[18]
  IC50: 49.6 µM (active)
[8]
  IC50: > 100 µM (not active)

## Cc1cc2ncn(/N=C/c3ccc([N+](=O)[O-])s3)c2cc1C
[19]
  IC50: 3.27 µM (active)
[1]
  EC50: 3.33 µM (active)
cells
  IC50: 1.25 µM (active)
[20]
  CC50: 6.75 µM (active)
Vero
  CC50: 18.5 µM (active)
[21]
  CC50: 14 µM (active)
[6]
  EC50: 3.36 µM (active)
[22]
  CC50: 17.1 µM (active)

## O=C(CSCc1ccc(Cl)cc1)N/N=C/c1c(Cl)cccc1Cl
[11]
  IC50: 6.47 µM (active)
[12]
  IC50: 8.3 µM (active)

## CCc1ccc2c(c1)Sc1ccccc1CC2N1CCN(C)CC1 (stereo not drawn)
cells
  IC50: 14.1 µM (active)
[20]
  CC50: 15.8 µM (active)
[21]
  CC50: > 20 µM (active)
[22]
  CC50: > 20 µM (active)

## COc1ccccc1C(=O)Nc1cccc(-c2cn3ccsc3n2)c1
[2]
  EC50: > 79.4 µM (not active)
[4]
  EC50: > 79.4 µM (not active)
[5]
  EC50: > 79.4 µM (not active)

## COC(=O)N1CCC2(CC1)CN(c1ccccc1)C2
Cytochrome P450 3A4 [23]
  AC50: inconclusive

## Nc1c2c(nc3sc4c(c13)CCCC4)CCCCCC2
[11]
  IC50: > 35 µM (not active)
[12]
  IC50: 26.7 µM (not active)
